We go through 57 compounds from patent publication US10071974B2, “Morpholine and 1,4-oxazepane amides as somatostatin receptor subtype 4 (SSTR4) agonists” (Boehringer Ingelheim International GmbH, priority 2014, dated 2018).

Series [1] is described as follows: in vitro. As to conditions: human, microsomes, pH 7.6.
In series [2] the target is human Somatostatin 4 Receptor (SSTR4) (Homo sapiens (Human), UniProt P31391). Kind of series: cAMP assay with human somatostatin 4 receptor (hSSTR4 expressing H4 cells). The format is cell-based. Conditions: read-out: SSTR4 agonism EC50.
human Somatostatin 4 Receptor (SSTR4), sequence (P31391 whole entry): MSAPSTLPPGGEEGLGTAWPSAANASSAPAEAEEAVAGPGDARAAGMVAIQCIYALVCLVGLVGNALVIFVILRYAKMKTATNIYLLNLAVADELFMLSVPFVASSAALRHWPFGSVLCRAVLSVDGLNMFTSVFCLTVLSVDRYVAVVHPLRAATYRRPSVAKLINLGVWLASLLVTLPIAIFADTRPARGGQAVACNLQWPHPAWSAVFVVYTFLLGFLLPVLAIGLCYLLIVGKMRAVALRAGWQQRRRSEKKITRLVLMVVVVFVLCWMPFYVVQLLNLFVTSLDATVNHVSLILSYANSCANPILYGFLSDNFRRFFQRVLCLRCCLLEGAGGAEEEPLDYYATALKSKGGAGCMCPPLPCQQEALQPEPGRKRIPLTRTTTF

In series [1], `Cc1cc2ccccc2c(C(C)(C)NC(=O)C2CNCCCO2)n1` (single isomer, unassigned) [Example 48] had a half-life at 1 μM of more than 2.17 h. Moreover, the EC50 in series [2] turned out to be 18.9 nM. The like results for `Cc1cccn2c(C(C)(C)NC(=O)C3CNCCOC3)ncc12` (racemic) [Example 116] were, in that order, more than 2.17 h and 9.3 nM.

`CC(C)(NC(=O)C1CNCCOC1)c1n[nH]c2c(F)cccc12` (single isomer, unassigned) [Example 89] yielded a half-life at 1 μM in series [1] of more than 2.17 h. Also, the EC50 in series [2] is 3.1 nM. For `Cc1cccc2c(C(C)(C)NC(=O)C3CNCCOC3)nn(C)c12` (single isomer, unassigned) [Example 85] the same measures were more than 2.17 h and 2 nM. The like results for `Cn1nc(C(C)(C)NC(=O)[C@@H]2CNCCO2)c2ccc(F)cc21` [Example 30] were, in that order, more than 2.17 h and 13.1 nM. The like results for `Cc1ncc(C(C)(C)NC(=O)C2CNCCOC2)c2ccccc12` (single isomer, unassigned) [Example 41] were, in that order, more than 2.17 h and 0.7 nM. Compound `Cn1nc(C(C)(C)NC(=O)C2CCNCCO2)c2ccccc21` (single isomer, unassigned) [Example 27] yielded a half-life at 1 μM in series [1] of more than 2.17 h. The EC50 in series [2] was 55.8 nM. For `Cn1nc(C(C)(C)NC(=O)C2CNCCOC2)c2cccc(Cl)c21` (single isomer, unassigned) [Example 82] the same measures were more than 2.17 h and 3 nM. For `Cn1nc(C(C)(C)NC(=O)C2CNCCCO2)c2ccccc21` (racemic) [Example 23] the same measures were more than 2.17 h and 36.5 nM. The like results for `Cc1nnc(C(C)(C)NC(=O)C2CNCCOC2)c2ccccc12` (racemic) [Example 37] were, in that order, more than 2.17 h and 11.7 nM.

Take `Cc1cccn2c(C(C)(C)NC(=O)[C@@H]3CNCCO3)ccc12` [Example 109]: the half-life at 1 μM in series [1] is 1.4 h. The EC50 in series [2] was found to be 3.7 nM. The like results for `CC(C)(NC(=O)[C@@H]1CNCCO1)c1n[nH]c2c(Cl)cccc12` [Example 91] were, in that order, more than 2.17 h and 3.4 nM. Consider `Cn1nc(C(C)(C)NC(=O)C2CCNCCO2)c2ccccc21` (racemic) [Example 26], for which the half-life at 1 μM in series [1] was more than 2.17 h. The EC50 in series [2] was determined as 61.3 nM. The like results for `CC(C)(NC(=O)C1CNCCOC1)c1ncc2c(Cl)cccn12` (single isomer, unassigned) [Example 120] were, in that order, more than 2.17 h and 5.9 nM. In the case of `Cc1cc2ccccc2c(C(C)(C)NC(=O)[C@@H]2CNCCO2)n1` [Example 43], the half-life at 1 μM in series [1] came out at 1.83 h. As for `Cc1ncc(C(C)(C)NC(=O)[C@@H]2CNCCO2)c2ccccc12` [Example 38], the half-life at 1 μM in series [1] is more than 2.17 h. For the same compound, in series [2], the EC50 amounted to 1.3 nM.

On to `CC(C)(NC(=O)[C@@H]1CNCCO1)c1ncc2c(Cl)cccn12` [Example 96], for which, in series [1], the half-life at 1 μM is more than 2.17 h. The EC50 in series [2] is 13 nM. The like results for `Cc1cc2ccccc2c(C(C)(C)NC(=O)C2CNCCOC2)n1` (single isomer, unassigned) [Example 46] were, in that order, more than 2.17 h and 3.4 nM. Compound `Cc1cccc2c(C(C)(C)NC(=O)C3CNCCOC3)noc12` (single isomer, unassigned) [Example 55] showed a half-life at 1 μM in series [1] of more than 2.17 h. For the same compound, the EC50 in series [2] is 2.9 nM.

On to `Cc1cccc2c(C(C)(C)NC(=O)[C@@H]3CNCCO3)n[nH]c12` [Example 57], for which the half-life at 1 μM in series [1] is more than 2.17 h. Further, the EC50 in series [2] came to 2.4 nM. For `Cc1cccc2c(C(C)(C)NC(=O)C3CNCCOC3)n[nH]c12` (single isomer, unassigned) [Example 60], the half-life at 1 μM in series [1] is more than 2.17 h. Moreover, the EC50 in series [2] is 1.3 nM. In the case of `Cc1cccn2c(C(C)(C)NC(=O)C3CNCCCO3)ncc12` (single isomer, unassigned) [Example 146], in series [2], the EC50 is 1000 nM. On the same count and under the same terms, with `CC(C)(NC(=O)C1CNCCOC1)c1n[nH]c2c(F)cccc12` (single isomer, unassigned) [Example 90] the figure was 670 nM; with `Cc1cc2ccccc2c(C(C)(C)NC(=O)C2CNCCOC2)n1` (single isomer, unassigned) [Example 45], 795 nM; with `COc1cccn2c(C(C)(C)NC(=O)C3CNCCOC3)ncc12` (racemic) [Example 123], 32.4 nM. `Cc1cccn2c(C(C)(C)NC(=O)C3CNCCOC3)ccc12` (single isomer, unassigned) [Example 136]: the half-life at 1 μM in series [1] is more than 2.17 h. In addition, the EC50 in series [2] was found to be 3.7 nM. Regarding `CC(C)(NC(=O)C1CNCCOC1)c1noc2c(F)cccc12` (single isomer, unassigned) [Example 63], the EC50 in series [2] was 42 nM. On the same count and under the same terms, for `Cc1cccn2c(C(C)(C)NC(=O)C3CNCCCO3)nc(C)c12` (racemic) [Example 147] the value was 185 nM. Same read-out and setting: for `Cc1cccc2c(C(C)(C)NC(=O)C3CNCCOC3)n[nH]c12` (racemic) [Example 58] the value was 4.1 nM; for `CC(C)(NC(=O)[C@@H]1CNCCO1)c1nc(C2CC2)c2c(F)cccn12` [Example 103], 60.7 nM. The compound `Cn1nc(C(C)(C)NC(=O)C2CNCCOC2)c2cccc(F)c21` (single isomer, unassigned) [Example 77] gave a half-life at 1 μM in series [1] of more than 2.17 h. Besides, in series [2], the EC50 was 5.1 nM.

`CC(C)(NC(=O)[C@@H]1CNCCO1)c1nc2ccc(Cl)cc2[nH]1` [Example 14]: the EC50 in series [2] came to 796 nM. As for `Cc1cccn2c(C(C)(CC(C)C)NC(=O)[C@@H]3CNCCO3)ncc12` (single isomer, unassigned) [Example 113], the EC50 in series [2] is 380 nM. For `Cc1nnc(C(C)(C)NC(=O)[C@@H]2CNCCO2)c2ccccc12` [Example 36], in series [2], the EC50 came out at 25.4 nM. Same read-out and setting: for `Cc1cc(F)cn2c(C(C)(C)NC(=O)[C@@H]3CNCCO3)ncc12` [Example 100] the value was 103 nM.

On to `Cc1cc2ccccc2c(C(C)(C)NC(=O)C2CNCCOC2)n1` (racemic) [Example 44], for which, in series [1], the half-life at 1 μM was more than 2.17 h. Also, the EC50 in series [2] is 7 nM. On to `Cc1cccn2c(C(C)(CC(C)C)NC(=O)[C@@H]3CNCCO3)ncc12` (single isomer, unassigned) [Example 112], for which, in series [2], the EC50 stood at 5500 nM.

As to `Cn1nc(C(C)(C)NC(=O)C2CNCCOC2)c2ccccc21` (racemic) [Example 20], the half-life at 1 μM in series [1] is more than 2.17 h. In addition, in series [2], the EC50 stood at 3.9 nM. On to `CC(C)(NC(=O)[C@@H]1CNCCO1)c1n[nH]c2c(F)cccc12` [Example 87], for which the EC50 in series [2] amounted to 13.4 nM. In the case of `Cc1nc(C(C)(C)NC(=O)C2CNCCOC2)n2cccc(F)c12` (single isomer, unassigned) [Example 122], the EC50 in series [2] is 1000 nM. For `Cc1cccc2c(C(C)(C)NC(=O)C3CNCCOC3)cnn12` (single isomer, unassigned) [Example 34], the half-life at 1 μM in series [1] was more than 2.17 h. Further, the EC50 in series [2] worked out at 5.7 nM. As for `Cc1nc(C(C)(C)NC(=O)C2CNCCOC2)c2cccc(C)c2n1` (single isomer, unassigned) [Example 134], in series [2], the EC50 came out at 98.1 nM.

For `CC(C)(NC(=O)C1CNCCOC1)c1nc2ccc(Cl)cc2[nH]1` (centres unmarked) [Example 13], the EC50 in series [2] came out at 356 nM. Same read-out and setting: for `CC(C)(NC(=O)C1CNCCCO1)c1noc2c(F)cccc12` (racemic) [Example 65] the value was 998 nM; for `Cc1cccc2c(C(C)(C)NC(=O)C3CNCCOC3)noc12` (single isomer, unassigned) [Example 56], 737 nM. `Cc1cccn2c(C(C)(C)NC(=O)C3CNCCOC3)nc(C)c12` (racemic) [Example 128]: the half-life at 1 μM in series [1] was more than 2.17 h. Moreover, the EC50 in series [2] was 5 nM. For `CC(C)(NC(=O)C1CNCCOC1)c1n[nH]c2c(Cl)cccc12` (single isomer, unassigned) [Example 93] the same measures were more than 2.17 h and 1.4 nM. In the case of `Cc1cccn2c(C3(NC(=O)[C@@H]4CNCCO4)CCOC3)ncc12` (single isomer, unassigned) [Example 115], the half-maximal effective concentration (EC50) in series [2] came out at 294 nM. Still for that read-out and setting: for `CC(C)(COc1nccc2ccccc12)NC(=O)C1CNCCOC1` (single isomer, unassigned) [Example 17] the value was 30000 nM. The same measure, in the same setting: for `CC(C)(NC(=O)C1CNCCOC1)c1noc2c(F)cccc12` (single isomer, unassigned) [Example 64] the value was 1860 nM. For `Cc1cccn2c(C(C)(C)NC(=O)C3CNCCCO3)ncc12` (single isomer, unassigned) [Example 145], in series [1], the half-life at 1 μM is more than 2.17 h. Moreover, in series [2], the EC50 came to 29.1 nM. `Cc1cccn2c(C(C)(NC(=O)[C@@H]3CNCCO3)C3CC3)ncc12` (single isomer, unassigned) [Example 111]: the EC50 in series [2] was 290 nM. Same read-out and setting: for `CC(C)(NC(=O)[C@@H]1CNCCO1)c1noc2c(F)cccc12` [Example 61] the value was 147 nM. Compound `Cc1cccn2c(C(C)(C)NC(=O)C3CNCCOC3)ncc12` (single isomer, unassigned) [Example 117] yielded a half-life at 1 μM in series [1] of more than 2.17 h. In addition, the EC50 in series [2] came to 2.6 nM. As to `CC(C)(COc1cnccc1C(F)(F)F)NC(=O)[C@@H]1CNCCO1` [Example 9], the EC50 in series [2] worked out at 190 nM.

As for `Cc1cc2cccnc2c(C(C)(C)NC(=O)C2CNCCOC2)n1` (centres unmarked) [Example 2], the EC50 in series [2] is 90.1 nM. On to `Cc1cccc2c(C(C)(C)NC(=O)C3CNCCOC3)cnn12` (racemic) [Example 33], for which, in series [2], the EC50 worked out at 7.7 nM.
